# Results as given in patent US20140256639A1, “PEPTOID NEUTRALIZING AGENTS” (The Regents of the University of California, priority 2013, published 2014).
# Experiments:
# heparin activity = details: Rabenstein and Wang 2006; cited from earlier work
# proteases = details: physiological conditions; cited from earlier work
# [1] = Heparin affinity chromatography (HAC), NaCl gradient elution; format: binding; details: pH 7.2, 50 mM sodium phosphate, gradient 0 to 1 M NaCl over 60 min, 0.65 mL/min
# Method: The relative affinities of the peptoids in Table 2 for heparin were determined by heparin affinity chromatography (“HAC”). Peptoid solutions, typically 0.2 mM, were eluted by gradient elution; mobile phase A consisted of pH 7.2, 50 mM sodium phosphate buffer and mobile phase B consisted of the same buffer but with 1 M NaCl added. The flow rate was 0.65 mL/min and the gradient began with 100% mobile phase A and 0% mobile phase B, and ended at 60 min with 0% mobile phase A and 100% B although most of the peptoid runs were complete within 30 min or less.
Substance,stability / degradation by proteases (proteases),also measured
Ac-SRGKAKVKAKVKDQTK-NH2 (not fully specified; printed as Ac-SRGKAKVKAKVKDQTK-NH2) [L-HIPAP],,neutralizing heparin activity (heparin activity): equally effective
Ac-SRGKAKVKAKVKDQTK-NH2 [D-HIPAP],more stable than L-HIPAP,
Ac-SRGKAKVKAKVKDQTK-NH2 [L-HIPAP],more susceptible to degradation by proteases,
H-[N(Orn)-N(All)-N(Spe)]3-NH2 [s9merAll],,HAC r.t. [1]: 20 ± 2.0 min
